Counter-ions that a name gives are not always drawn.
Assays:
CK1δ = CK1δ (Homo sapiens, UniProt P48730); experiment: CK1δ kinase assay (Kinase-Glo luminescence); type: biochemical; details: ATP 10 μM, CK1δ enzyme 2 nM, peptide substrate 42 μM, 25° C., 85 minutes; values marked * are geometric mean of 5-16 determinations; read-out: CKIδ IC50 (nM), geometric mean of 2-4 determinations
Experimental: The CK1δ kinase assay was performed in a standard buffer containing ATP at 10 μM, CK1δ enzyme at 2 nM, and the peptide substrate PLSRTLpSVASLPGL at 42 μM. The reaction was incubated at 25° C. for 85 minutes. Enzyme inhibition was performed in the presence of either 1 μL of CK1δ inhibitor, or 4% DMSO. Detection of luminescent output on a PerkinElmer EnVision plate reader (PerkinElmer, Waltham, Mass.) was performed as described for the Kinase-Glo Assay (Promega).

CK1ε wild type enzyme = CK1ε wild type enzyme (Homo sapiens, UniProt P49674); experiment: CK1ε kinase assay (Kinase-Glo luminescence); type: biochemical; details: ATP 10 μM, CK1ε wild type enzyme 2.5 nM, peptide substrate 42 μM, 25° C., 70 minutes; values marked * are geometric mean of 5-16 determinations; read-out: CKIε IC50 (nM), geometric mean of 2-4 determinations
Experimental: The CK1ε kinase assay was performed in a standard buffer containing ATP at 10 μM, CK1ε wild type enzyme at 2.5 nM, and 42 μM concentration of the peptide substrate PLSRTLpSVASLPGL (Flotow et al., 1990). The reaction was incubated at 25° C. for 70 minutes. Enzyme inhibition was measured in the presence of 1 μL of the CK1ε inhibitor, or 4% DMSO. Detection was carried out as described for the Kinase-Glo Assay (Promega). Luminescent output was measured on the PerkinElmer EnVision plate reader (PerkinElmer, Waltham, Mass.).

CK1ε wild type enzyme, sequence (P49674 whole entry): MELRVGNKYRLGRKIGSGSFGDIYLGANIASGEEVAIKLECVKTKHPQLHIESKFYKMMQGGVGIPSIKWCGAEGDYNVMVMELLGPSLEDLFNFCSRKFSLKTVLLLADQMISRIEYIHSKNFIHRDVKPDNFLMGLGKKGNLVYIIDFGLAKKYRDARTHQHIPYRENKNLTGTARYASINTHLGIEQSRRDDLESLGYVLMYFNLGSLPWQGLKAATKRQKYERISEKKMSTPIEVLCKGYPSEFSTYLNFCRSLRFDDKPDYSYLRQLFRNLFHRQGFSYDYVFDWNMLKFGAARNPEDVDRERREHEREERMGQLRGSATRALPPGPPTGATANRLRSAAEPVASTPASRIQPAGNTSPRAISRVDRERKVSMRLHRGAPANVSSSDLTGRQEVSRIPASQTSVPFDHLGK
CK1δ, sequence (P48730 whole entry): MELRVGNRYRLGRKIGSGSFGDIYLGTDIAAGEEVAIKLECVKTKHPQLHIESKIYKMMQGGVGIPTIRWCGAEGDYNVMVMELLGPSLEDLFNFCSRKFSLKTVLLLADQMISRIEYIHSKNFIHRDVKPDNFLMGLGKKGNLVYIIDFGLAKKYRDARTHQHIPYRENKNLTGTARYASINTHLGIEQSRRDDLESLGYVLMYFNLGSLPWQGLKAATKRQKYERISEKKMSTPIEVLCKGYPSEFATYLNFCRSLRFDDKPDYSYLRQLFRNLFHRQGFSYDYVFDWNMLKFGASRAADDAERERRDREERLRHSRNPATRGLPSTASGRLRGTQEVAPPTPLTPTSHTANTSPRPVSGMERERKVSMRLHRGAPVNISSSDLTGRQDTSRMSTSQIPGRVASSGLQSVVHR

| IC50 (CK1δ) [nM] | IC50 (CK1ε wild type enzyme) [nM] | Structure (SMILES) |
| --- | --- | --- |
| 56.3 | 140 | Nc1nccc(-c2c(-c3ccc(F)cc3)ncn2C2CCN(Cc3cncc4ccccc34)C2)n1 (centres unmarked) [Example 36, 4-{4-(4-fluorophenyl)-1-[1-(isoquinolin-4-ylmethyl)pyrrolidin-3-yl]-1H-imidazol-5-yl}pyrimidin-2-amine] |
| 46.6 | 124 | Cc1cc(C)c(CN2CCC(n3cnc(-c4ccc(F)cc4)c3-c3ccnc(N)n3)C2)cn1 (centres unmarked) [Example 37, 4-[1-{1-[(4,6-dimethylpyridin-3-yl)methyl]pyrrolidin-3-yl}-4-(4-fluorophenyl)-1H-imidazol-5-yl]pyrimidin-2-amine] |
| 55.8 | 158 | Nc1nccc(-c2c(-c3ccc(F)cc3)ncn2C2CCN(Cc3ccnc4cccnc34)C2)n1 (centres unmarked) [Example 38, 4-{4-{4-fluorophenyl)-1-[1-(1,5-naphthyridin-4-ylmethyl)pyrrolidin-3-yl]-1H-imidazol-5-yl}pyrimidin-2-amine] |
| 211 | 644 | Fc1ccc(-c2ncn(C3CCN(Cc4cn5ccccc5n4)C3)c2-c2ccncn2)cc1 (centres unmarked) [Example 39, 2-({3-[4-(4-fluoro-phenyl)-5-pyrimidin-4-yl-1H-imidazol-1-yl]pyrrolidin-1-yl}methyl)imidazo[1,2-a]pyridine, trifluoroacetate salt] |
| 178 | 798 | Fc1ccc(-c2ncn(C3CCN(Cc4cnc5ccnn5c4)C3)c2-c2ccncn2)cc1 (centres unmarked) [Example 40, 6-({3-[4-(4-fluorophenyl)-5-pyrimidin-4-yl-1H-imidazol-1-yl]pyrrolidin-1-yl}methyl)pyrazolo[1,5-a]pyrimidine, trifluoroacetate salt] |
| 595 | 1990 | Cc1c(CN2CCC(n3cnc(-c4ccc(F)cc4)c3-c3ccncn3)C2)nc2ccccn12 (centres unmarked) [Example 41, 2-({3-[4-(4-fluorophenyl)-5-pyrimidin-4-yl-1H-imidazol-1-yl]pyrrolidin-1-yl}methyl)-3-methylimidazo[1,2-a]pyridine, trifluoroacetate salt] |
| 679 | 1530 | COCCc1ncc(CN2CCC(n3cnc(-c4ccc(F)cc4)c3-c3ccncn3)C2)cn1 (centres unmarked) [Example 42, 5-({3-[4-(4-fluorophenyl)-5-pyrimidin-4-yl-1H-imidazol-1-yl]pyrrolidin-1-yl}methyl)-2-(2-methoxyethyl)pyrimidine, trifluoroacetate salt] |

The remaining lines, values behind:

| Structure (SMILES) | IC50 (CK1δ) [nM] | IC50 (CK1ε wild type enzyme) [nM] |
| --- | --- | --- |
| Cc1cccc(CN2CCC(n3cnc(-c4ccc(F)cc4)c3-c3ccnc(N)n3)C2)n1 (centres unmarked) [Example 30, 4-[4-(4-fluorophenyl)-1-{1-[(6-methylpyridin-2-yl)methyl]pyrrolidin-3-yl}-1H-imidazol-5-yl]pyrimidin-2-amine] | 91.6 | 266 |
| Cc1cnc(CN2CCC(n3cnc(-c4ccc(F)cc4)c3-c3ccnc(N)n3)C2)c(F)c1 (centres unmarked) [Example 31, 4-[1-{1-[(3-fluoro-5-methylpyridin-2-yl)methyl]pyrrolidin-3-yl}-4-(4-fluorophenyl)-1H-imidazol-5-yl]pyrimidin-2-amine] | 47.6 | 165 |
| Cc1ncccc1CN1CCC(n2cnc(-c3ccc(F)cc3)c2-c2ccnc(N)n2)C1 (centres unmarked) [Example 32, 4-[4-(4-fluorophenyl)-1-{1-[(2-methylpyridin-3-yl)methyl]pyrrolidin-3-yl}-1H-imidazol-5-yl]pyrimidin-2-amine] | 61.1 | 150 |
| Cc1cc(CN2CCC(n3cnc(-c4ccc(F)cc4)c3-c3ccnc(N)n3)C2)no1 (centres unmarked) [Example 33, 4-[4-(4-fluorophenyl)-1-{1-[(5-methylisoxazol-3-yl)methyl]pyrrolidin-3-yl}-1H-imidazol-5-yl]pyrimidin-2-amine] | 55.1 | 140 |
| Nc1nccc(-c2c(-c3ccc(F)cc3)ncn2C2CCN(Cc3ccncc3)C2)n1 (centres unmarked) [Example 34, 4-{4-(4-fluorophenyl)-1-[1-(pyridin-4-ylmethyl)pyrrolidin-3-yl]-1H-imidazol-5-yl}pyrimidin-2-amine] | 76.6 | 211 |
| Nc1nccc(-c2c(-c3ccc(F)cc3)ncn2C2CCN(Cc3ccc4nccnc4c3)C2)n1 (centres unmarked) [Example 35, 4-{4-(4-fluorophenyl)-1-[1-(quinoxalin-6-ylmethyl)pyrrolidin-3-yl]-1H-imidazol-5-yl}pyrimidin-2-amine] | 67.8 | 170 |

Reference: patent US8518944B2, “Compounds as casein kinase inhibitors” (Pfizer Inc., priority 2009, dated 2013)
